# Assay results as given in patent publication US10538487B2, “Sulfonylureas and related compounds and use of same” (priority 2015, dated 2020).
# Where two headings read alike, the source gives them in different places.
# Experiment: Single dose pharmacokinetic study in mice (iv 4 mg/Kg, po 20 mg/Kg), plasma concentration post-dosing
# Format: in vivo, mouse
# Conditions: male, C57BL/6, mouse, plasma, mouse; for concentration at 5 min: 5 min post dosing; for concentration at 0.25 h: 0.250 h post dosing; for concentration at 0.5 h: 0.500 h post dosing; for concentration at 1 h: 1.00 h post dosing; for concentration at 2 h: 2.00 h post dosing; for concentration at 4 h: 4.00 h post dosing; for concentration at 8 h: 8.00 h post dosing; for concentration at 24 h: 24.0 h post dosing
# Procedure: This is advantageous leading to comparatively lower doses or less frequent administration. The procedure followed was: Male C57BL/6 mice were used at 7-9 weeks age with 3 animals per group. Mice were dosed with test compound using single intravenous bolus or oral gavage. Blood samples were taken via submandibular or saphenous vein for analysis of plasma concentrations of compound by LC-MS/MS at the following timepoints: IV (3 mice): 0.083, 0.25, 0.5, 1, 2, 4, 8 and 24 hours post dosing, PO (3 mice): 0.25, 0.5, 1, 2, 4, 8 and 24 hours post dosing. LC-MS/MS method for the quantitative determination of test compound in corresponding biological matrix was developed. […] The results are shown graphically in FIGS. 1A to 1C (MCC950) and FIGS. 2A to 2C (MCC7840).
smiles,measurement,setting,value
CC(C)n1ccc(S(=O)(=O)NC(=O)Nc2c3c(cc4c2CCC4)CCC3)n1 [MCC_007840_002],concentration at 5 min,"iv, 4 mg/kg, IV 4 mg/Kg, individual mice M1-M3, read-out: Plasma concentration, IV Time 0.0833 h",47800 ng/mL
same,concentration at 5 min,"iv, 4 mg/kg, IV 4 mg/Kg, mean of 3 mice, read-out: Plasma concentration, IV Time 0.0833 h, Mean IV",42800 ng/mL
same,concentration at 0.25 h,"iv, 4 mg/kg, IV 4 mg/Kg, individual mice M1-M3, read-out: Plasma concentration, IV Time 0.250 h",28100 ng/mL
same,concentration at 0.25 h,"iv, 4 mg/kg, IV 4 mg/Kg, mean of 3 mice, read-out: Plasma concentration, IV Time 0.250 h, Mean IV",28900 ng/mL
same,concentration at 0.5 h,"iv, 4 mg/kg, IV 4 mg/Kg, individual mice M1-M3, read-out: Plasma concentration, IV Time 0.500 h",25200 ng/mL
same,concentration at 0.5 h,"iv, 4 mg/kg, IV 4 mg/Kg, mean of 3 mice, read-out: Plasma concentration, IV Time 0.500 h, Mean IV",25000 ng/mL
same,concentration at 1 h,"iv, 4 mg/kg, IV 4 mg/Kg, individual mice M1-M3, read-out: Plasma concentration, IV Time 1.00 h",19900 ng/mL
same,concentration at 1 h,"iv, 4 mg/kg, IV 4 mg/Kg, mean of 3 mice, read-out: Plasma concentration, IV Time 1.00 h, Mean IV",18700 ng/mL
same,concentration at 2 h,"iv, 4 mg/kg, IV 4 mg/Kg, individual mice M1-M3, read-out: Plasma concentration, IV Time 2.00 h",13300 ng/mL
same,concentration at 2 h,"iv, 4 mg/kg, IV 4 mg/Kg, mean of 3 mice, read-out: Plasma concentration, IV Time 2.00 h, Mean IV",16000 ng/mL
same,concentration at 4 h,"iv, 4 mg/kg, IV 4 mg/Kg, individual mice M1-M3, read-out: Plasma concentration, IV Time 4.00 h",6520 ng/mL
same,concentration at 4 h,"iv, 4 mg/kg, IV 4 mg/Kg, mean of 3 mice, read-out: Plasma concentration, IV Time 4.00 h, Mean IV",7890 ng/mL
same,concentration at 8 h,"iv, 4 mg/kg, IV 4 mg/Kg, individual mice M1-M3, read-out: Plasma concentration, IV Time 8.00 h",3490 ng/mL
same,concentration at 8 h,"iv, 4 mg/kg, IV 4 mg/Kg, mean of 3 mice, read-out: Plasma concentration, IV Time 8.00 h, Mean IV",3760 ng/mL
same,concentration at 24 h,"iv, 4 mg/kg, IV 4 mg/Kg, individual mice M1-M3, read-out: Plasma concentration, IV Time 24.0 h",149 ng/mL
same,concentration at 24 h,"iv, 4 mg/kg, IV 4 mg/Kg, mean of 3 mice, read-out: Plasma concentration, IV Time 24.0 h, Mean IV",134 ng/mL
same,AUC0-inf,"iv, 4 mg/kg, IV 4 mg/Kg, individual mice M1-M3, read-out: AUC0-inf",101 µg·h/mL
same,AUC(0-t),"iv, 4 mg/kg, IV 4 mg/Kg, individual mice M1-M3, read-out: AUC0-last",100 µg·h/mL
same,C0,"iv, 4 mg/kg, IV 4 mg/Kg, individual mice M1-M3, read-out: C0",62300 ng/mL
same,clearance,"iv, 4 mg/kg, IV 4 mg/Kg, individual mice M1-M3, read-out: Cl",0.659 mL/min/kg
same,MRT inf,"iv, 4 mg/kg, IV 4 mg/Kg, individual mice M1-M3, read-out: MRT0-inf",4.3 h
same,MRT last,"iv, 4 mg/kg, IV 4 mg/Kg, individual mice M1-M3, read-out: MRT0-last",4.11 h
same,half-life,"iv, 4 mg/kg, IV 4 mg/Kg, individual mice M1-M3, read-out: T1/2 (converted)",3.62 h
same,Vd,"iv, 4 mg/kg, IV 4 mg/Kg, individual mice M1-M3, read-out: Vdss",0.17 L/kg
same,AUC0-inf,"iv, 4 mg/kg, IV 4 mg/Kg, mean of 3 mice, read-out: AUC0-inf, Mean IV",108 µg·h/mL
same,AUC(0-t),"iv, 4 mg/kg, IV 4 mg/Kg, mean of 3 mice, read-out: AUC0-last, Mean IV",107 µg·h/mL
same,clearance,"iv, 4 mg/kg, IV 4 mg/Kg, mean of 3 mice, read-out: Cl, Mean IV",0.621 mL/min/kg
same,MRT inf,"iv, 4 mg/kg, IV 4 mg/Kg, mean of 3 mice, read-out: MRT0-inf, Mean IV",4.29 h
same,MRT last,"iv, 4 mg/kg, IV 4 mg/Kg, mean of 3 mice, read-out: MRT0-last, Mean IV",4.13 h
same,half-life,"iv, 4 mg/kg, IV 4 mg/Kg, mean of 3 mice, read-out: T1/2, Mean IV (converted)",3.39 h
same,Vd,"iv, 4 mg/kg, IV 4 mg/Kg, mean of 3 mice, read-out: Vdss, Mean IV",0.16 L/kg
same,concentration at 0.25 h,"po, 20 mg/kg, PO 20 mg/Kg, mean of 3 mice, read-out: Plasma concentration, PO Time 0.250 h, Mean PO",60500 ng/mL
same,concentration at 0.5 h,"po, 20 mg/kg, PO 20 mg/Kg, mean of 3 mice, read-out: Plasma concentration, PO Time 0.500 h, Mean PO",50300 ng/mL
same,concentration at 1 h,"po, 20 mg/kg, PO 20 mg/Kg, mean of 3 mice, read-out: Plasma concentration, PO Time 1.00 h, Mean PO",42300 ng/mL
same,concentration at 2 h,"po, 20 mg/kg, PO 20 mg/Kg, mean of 3 mice, read-out: Plasma concentration, PO Time 2.00 h, Mean PO",42600 ng/mL
same,concentration at 4 h,"po, 20 mg/kg, PO 20 mg/Kg, mean of 3 mice, read-out: Plasma concentration, PO Time 4.00 h, Mean PO",26600 ng/mL
same,concentration at 8 h,"po, 20 mg/kg, PO 20 mg/Kg, mean of 3 mice, read-out: Plasma concentration, PO Time 8.00 h, Mean PO",18900 ng/mL
same,concentration at 24 h,"po, 20 mg/kg, PO 20 mg/Kg, mean of 3 mice, read-out: Plasma concentration, PO Time 24.0 h, Mean PO",1470 ng/mL
same,AUC0-inf,"po, 20 mg/kg, PO 20 mg/Kg, individual mice M4-M6, read-out: AUC0-inf",368 µg·h/mL
same,MRT last,"po, 20 mg/kg, PO 20 mg/Kg, individual mice M4-M6, read-out: MRT0-last",4.8 h
same,Tmax,"po, 20 mg/kg, PO 20 mg/Kg, individual mice M4-M6, read-out: Tmax",0.25 h
same,AUC0-inf,"po, 20 mg/kg, PO 20 mg/Kg, mean of 3 mice, read-out: AUC0-inf, Mean PO",362 µg·h/mL
same,AUC(0-t),"po, 20 mg/kg, PO 20 mg/Kg, mean of 3 mice, read-out: AUC0-last, Mean PO",350 µg·h/mL
same,Cmax,"po, 20 mg/kg, PO 20 mg/Kg, mean of 3 mice, read-out: Cmax, Mean PO",60500 ng/mL
same,MRT inf,"po, 20 mg/kg, PO 20 mg/Kg, mean of 3 mice, read-out: MRT0-inf, Mean PO",7.52 h
